From patent US4387101A, “Thiazolidine derivatives and their use” (Takeda Chemical Industries, Ltd., priority 1980, dated 1983) come the findings set out here.

A short description of series [1]: single-dose lethality test in mice. The format is in vivo. The following applies: 2500 mg/kg once; groups of 5 mice. The procedure: In a test in mice (each group consisting of 5 mice), when the compounds (I), for example, 5-(3-ethoxy-4-pentyloxyphenyl)thiazolidine-2,4-dione and 5-(3-ethoxy-4-isopentyloxyphenyl)thiazolidine-2,4-dione were administered at a dose of 2500 mg/kg once, no mouse died.

The next series relates to rat lens. Description: swelling inhibitory effect in rat lens culture assay. In kind it is cell-based. Conditions: 10^-6 M. The procedure:
The swelling inhibitory effect of each compound in a rat lens culture assay was evaluated by the method described in H. Obazawa et al., Invest. Ophthalmol Vol. 13, Nr. 3, 204 (1974).
The result for each compound was expressed as the % inhibition of swelling into the lens at the concentration of 10^-6 mole and are shown in Table 3.

A further series has as its target T1, aldose reductase (Homo sapiens, UniProt P15121).
T1 construct: partially purified aldose reductase preparation from human placenta; from tissue; host or cells: human placenta
The series is described as follows: aldose reductase activity, partially purified preparation from human placenta. The following applies: 10^-6 M. The format is biochemical. As to the method: The effect of the thiazolidine derivative (I) on aldose reductase activity was assayed after the method described in S. Haymen et al., Journal of Biological Chemistry, Vol. 240, 877 (1965) and Jin H. Kinoshita et al., Metabolism, Vol. 28, Nr. 4, Suppl 1, 462 (1979), etc. The enzyme used in the assay was a partially purified aldose reductase preparation from human placenta. The results for the respective compounds were expressed as % inhibition at the concentration of 10^-6 mole and are shown in Table 2.

Consider `CCOc1cc(C2SC(=O)NC2=O)ccc1OCCC(C)C` (stereo not drawn) [5-(3-ethoxy-4-isopentyloxyphenyl)thiazolidine-2,4-dione], for which the death of mice entry in series [1] is recorded as “no mouse died”.

One may read the inhibition as the change of the read-out against control, counted positive when it falls. Regarding `CCCCCOc1ccc(C2SC(=O)NC2=O)cc1OCC` (stereo not drawn) [Example 4, 5-(3-ethoxy-4-pentyloxyphenyl)-thiazolidine-2,4-dione], the death of mice entry in series [1] was “no mouse died”. The inhibition at 1 µM in the series on rat lens came out at 44.6%; on aldose reductase, 34.6%.

Regarding `Cc1ccc(C2SC(=O)NC2=O)cc1C` (stereo not drawn) [Example 5, 5-(3,4-dimethylphenyl)thiazolidine-2,4-dione], at aldose reductase, 1 µM produced 35.8% inhibition.

In the case of `COc1ccc(C2SC(=O)NC2=O)cc1OC` (stereo not drawn) [Example 10 - No. 1], the values for the inhibition at 1 µM with rat lens and on aldose reductase were 30.3% and 57.1%, respectively.

Take `CCOc1ccc(C2SC(=O)NC2=O)cc1OCC` (stereo not drawn) [Example 10 - No. 2]: the inhibition at 1 µM in the series on rat lens was 37%; at aldose reductase, 57%.

In the case of `CCOc1cc(C2SC(=O)NC2=O)ccc1O` (stereo not drawn) [Example 10 - No. 3], on aldose reductase, at 1 µM the inhibition was 51.6%.

Regarding `CCOc1cc(C2SC(=O)NC2=O)ccc1OC(C)=O` (stereo not drawn) [Example 10 - No. 4], the inhibition at 1 µM amounted to 23.7% with rat lens and 59% against aldose reductase.

Turning to `CC(=O)Oc1ccc(C2SC(=O)NC2=O)cc1OC(C)=O` (stereo not drawn) [Example 10 - No. 5], on aldose reductase, testing at 1 µM gave an inhibition of 76.9%.

Regarding `O=C1NC(=O)C(c2ccc(O)c(O)c2)S1` (stereo not drawn) [Example 10 - No. 6], testing at 1 µM on aldose reductase gave an inhibition of 41.8%.

At aldose reductase, `O=C1NC(=O)C(c2ccc3c(c2)OCO3)S1` (stereo not drawn) [Example 10 - No. 7] came in with an inhibition at 1 µM of 47.4%.

Turning to `CCCCOc1ccc(C2SC(=O)NC2=O)cc1OCCCC` (stereo not drawn) [Example 10 - No. 8], the inhibition at 1 µM against aldose reductase turned out to be 51.7%.

In turn, `CCCCOc1ccc(C2SC(=O)NC2=O)cc1OCC` (stereo not drawn) [Example 10 - No. 9] showed an inhibition at 1 µM against aldose reductase of 55.2%.

For the compound `CCCOc1ccc(C2SC(=O)NC2=O)cc1OCCC` (stereo not drawn) [Example 10 - No. 10], testing at 1 µM against aldose reductase gave an inhibition of 53.5%.

`CCCCCCOc1ccc(C2SC(=O)NC2=O)cc1OCC` (stereo not drawn) [Example 10 - No. 12]: the inhibition at 1 µM in the series on rat lens was 33%; against aldose reductase it was 37.7%.

With `CCOc1cc(C2SC(=O)NC2=O)ccc1OCCC(C)C` (stereo not drawn) [Example 10 - No. 13], the inhibition at 1 µM with rat lens was 25.3%; against aldose reductase it was 34%.

On to `CCOc1cc(C2SC(=O)NC2=O)ccc1OCC(C)(C)C` (stereo not drawn) [Example 10 - No. 14], for which the inhibition at 1 µM was determined as 57.2% in the series with rat lens and 28% on aldose reductase.

Compound `CCOc1cc(C2SC(=O)NC2=O)ccc1OCCCC(C)C` (stereo not drawn) [Example 10 - No. 15] registered an inhibition at 1 µM at aldose reductase of 60.6%.

`CCCCOc1ccc(C2SC(=O)NC2=O)cc1OC` (stereo not drawn) [Example 10 - No. 16]: on aldose reductase, testing at 1 µM gave an inhibition of 38.7%.

Turning to `CCCCCOc1ccc(C2SC(=O)NC2=O)cc1OC` (stereo not drawn) [Example 10 - No. 17], at aldose reductase, the inhibition at 1 µM stood at 40.6%.

On to `CCCCCCOc1ccc(C2SC(=O)NC2=O)cc1OC` (stereo not drawn) [Example 10 - No. 18], for which 1 µM produced 32.2% inhibition at aldose reductase.

As to `COc1cc(C2SC(=O)NC2=O)ccc1OCCCC(C)C` (stereo not drawn) [Example 10 - No. 19], on aldose reductase, the inhibition at 1 µM was determined as 68.1%.

`CCCCCOc1cc(C2SC(=O)NC2=O)ccc1OC` (stereo not drawn) [Example 10 - No. 20]: testing at 1 µM on aldose reductase gave an inhibition of 30%.
